Holding throughout (format): cell-based
One assay concerns the target T1, human TLR7 (Homo sapiens, UniProt Q9NYK1).
T1 construct: host or cells: HEK-Blue cells
T1 sequence (Q9NYK1 27-1049): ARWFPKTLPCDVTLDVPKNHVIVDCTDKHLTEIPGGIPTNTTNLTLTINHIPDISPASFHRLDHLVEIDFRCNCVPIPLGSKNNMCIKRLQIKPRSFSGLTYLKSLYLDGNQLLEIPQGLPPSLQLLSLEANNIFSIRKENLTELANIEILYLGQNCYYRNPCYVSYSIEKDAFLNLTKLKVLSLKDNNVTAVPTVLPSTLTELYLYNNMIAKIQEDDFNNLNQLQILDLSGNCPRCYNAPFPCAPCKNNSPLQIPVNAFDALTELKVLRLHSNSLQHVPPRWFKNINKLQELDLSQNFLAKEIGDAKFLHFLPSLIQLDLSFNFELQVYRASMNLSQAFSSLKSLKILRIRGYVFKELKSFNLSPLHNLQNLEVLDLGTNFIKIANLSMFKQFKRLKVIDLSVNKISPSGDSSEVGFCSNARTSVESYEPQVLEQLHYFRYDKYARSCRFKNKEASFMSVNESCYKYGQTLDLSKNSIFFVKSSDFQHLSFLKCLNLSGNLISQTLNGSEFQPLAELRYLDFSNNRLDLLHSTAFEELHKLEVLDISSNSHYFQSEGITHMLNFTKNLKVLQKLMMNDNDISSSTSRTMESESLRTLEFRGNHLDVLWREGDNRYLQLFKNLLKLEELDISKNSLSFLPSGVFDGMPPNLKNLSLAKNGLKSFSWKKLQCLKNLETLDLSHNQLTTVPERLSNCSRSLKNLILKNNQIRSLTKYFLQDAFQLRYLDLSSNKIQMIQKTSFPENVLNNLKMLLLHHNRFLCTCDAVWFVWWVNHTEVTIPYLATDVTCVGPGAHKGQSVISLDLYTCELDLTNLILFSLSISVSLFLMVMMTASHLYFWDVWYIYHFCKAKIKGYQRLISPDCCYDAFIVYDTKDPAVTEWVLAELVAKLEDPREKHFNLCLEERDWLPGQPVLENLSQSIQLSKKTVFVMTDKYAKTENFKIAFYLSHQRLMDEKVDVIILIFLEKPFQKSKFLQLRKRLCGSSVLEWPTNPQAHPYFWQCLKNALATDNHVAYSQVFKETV
Description: TLR7 inhibition reporter assay (HEK-Blue SEAP reporter, gardiquimod stimulation). To be noted: HEK-Blue cells overexpressing human TLR7, SEAP reporter, gardiquimod 7.5 μM, 22 hour incubation. The method in brief:
(§1)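 Agonists used: gardiquimod 7.5 μM (TLR7), R848 15.9 μM (TLR8), ODN2006 5 nM (TLR9), added after 30 min room-temperature compound pre-treatment (0.05 nM–50 μM) of receptor-overexpressing HEK-Blue cells. SEAP reporter (NF-κB/AP-1 driven) read after 22 h at 37 °C; inhibition scaled between agonist+DMSO and reference-inhibitor wells.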
For orientation: Reporter assays use an easily measured gene product as a stand-in for the process of interest.

A further assay deals with T2, human TLR9 (Homo sapiens, UniProt Q9NR96).
T2 construct: host or cells: HEK-Blue cells
T2 sequence (Q9NR96 26-1032): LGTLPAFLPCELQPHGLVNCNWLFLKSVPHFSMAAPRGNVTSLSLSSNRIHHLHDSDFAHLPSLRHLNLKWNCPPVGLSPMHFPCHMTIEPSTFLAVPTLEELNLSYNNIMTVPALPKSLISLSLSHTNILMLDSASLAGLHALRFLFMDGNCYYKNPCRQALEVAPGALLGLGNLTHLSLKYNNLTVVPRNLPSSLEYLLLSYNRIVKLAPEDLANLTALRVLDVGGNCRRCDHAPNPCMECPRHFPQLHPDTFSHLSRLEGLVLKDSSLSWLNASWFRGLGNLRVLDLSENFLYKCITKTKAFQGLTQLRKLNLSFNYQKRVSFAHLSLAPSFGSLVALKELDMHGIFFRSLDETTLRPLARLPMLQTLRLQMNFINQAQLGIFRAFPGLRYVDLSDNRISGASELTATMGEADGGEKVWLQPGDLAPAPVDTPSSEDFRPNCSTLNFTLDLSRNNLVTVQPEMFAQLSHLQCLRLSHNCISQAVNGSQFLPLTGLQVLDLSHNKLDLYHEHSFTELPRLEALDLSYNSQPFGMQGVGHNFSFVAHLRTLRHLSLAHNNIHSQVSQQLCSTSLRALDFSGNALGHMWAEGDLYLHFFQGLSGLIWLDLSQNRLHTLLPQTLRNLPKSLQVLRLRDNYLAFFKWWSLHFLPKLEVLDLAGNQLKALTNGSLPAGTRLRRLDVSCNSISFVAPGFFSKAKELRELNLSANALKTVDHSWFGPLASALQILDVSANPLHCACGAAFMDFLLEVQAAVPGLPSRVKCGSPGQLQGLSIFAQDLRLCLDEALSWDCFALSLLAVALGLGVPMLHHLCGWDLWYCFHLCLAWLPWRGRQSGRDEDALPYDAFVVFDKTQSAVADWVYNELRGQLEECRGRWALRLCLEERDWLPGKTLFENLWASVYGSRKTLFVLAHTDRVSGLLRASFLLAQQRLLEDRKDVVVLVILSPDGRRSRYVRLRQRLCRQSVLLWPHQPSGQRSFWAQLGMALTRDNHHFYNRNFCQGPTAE
Description: TLR9 inhibition reporter assay (HEK-Blue SEAP reporter, ODN2006 stimulation). To be noted: HEK-Blue cells overexpressing human TLR9, SEAP reporter, ODN2006 5 nM, 22 hour incubation. The method in brief:
as §1

For another assay, the target named is T3, human TLR8 (Homo sapiens, UniProt Q9NR97).
T3 construct: host or cells: HEK-Blue cells
T3 sequence (Q9NR97 27-1041): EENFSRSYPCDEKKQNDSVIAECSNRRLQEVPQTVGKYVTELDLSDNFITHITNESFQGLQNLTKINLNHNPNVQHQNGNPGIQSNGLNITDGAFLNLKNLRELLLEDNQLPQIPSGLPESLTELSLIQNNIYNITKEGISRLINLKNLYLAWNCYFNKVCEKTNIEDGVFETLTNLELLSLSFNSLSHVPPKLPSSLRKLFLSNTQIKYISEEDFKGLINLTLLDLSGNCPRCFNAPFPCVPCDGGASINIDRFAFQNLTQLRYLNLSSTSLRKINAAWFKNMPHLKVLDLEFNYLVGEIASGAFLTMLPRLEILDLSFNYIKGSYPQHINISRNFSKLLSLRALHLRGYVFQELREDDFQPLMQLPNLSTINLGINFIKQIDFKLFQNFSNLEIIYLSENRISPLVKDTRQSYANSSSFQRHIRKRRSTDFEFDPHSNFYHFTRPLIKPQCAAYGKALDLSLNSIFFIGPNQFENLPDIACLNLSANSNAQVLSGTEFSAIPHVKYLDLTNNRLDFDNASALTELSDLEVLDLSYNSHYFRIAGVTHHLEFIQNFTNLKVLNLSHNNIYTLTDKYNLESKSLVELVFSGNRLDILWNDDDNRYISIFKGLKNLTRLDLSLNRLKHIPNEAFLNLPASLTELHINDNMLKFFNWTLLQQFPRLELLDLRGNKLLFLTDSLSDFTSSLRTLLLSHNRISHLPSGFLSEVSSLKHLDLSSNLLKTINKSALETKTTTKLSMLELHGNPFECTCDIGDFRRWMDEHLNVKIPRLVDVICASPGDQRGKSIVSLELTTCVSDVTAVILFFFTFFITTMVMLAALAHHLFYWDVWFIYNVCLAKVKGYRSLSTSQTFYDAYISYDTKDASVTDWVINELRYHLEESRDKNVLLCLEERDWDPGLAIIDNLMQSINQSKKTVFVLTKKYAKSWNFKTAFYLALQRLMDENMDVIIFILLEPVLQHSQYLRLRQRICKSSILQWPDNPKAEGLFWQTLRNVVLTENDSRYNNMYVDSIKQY
The assay is described as follows: TLR8 inhibition reporter assay (HEK-Blue SEAP reporter, R848 stimulation). To be noted: HEK-Blue cells overexpressing human TLR8, SEAP reporter, R848 15.9 μM, 22 hour incubation. In short, it runs like this: as §1

Each structure is given as a SMILES string.

As a reminder, the IC50 is the midpoint of a concentration-inhibition curve. On to `CCCN1CCC(c2ccc3[nH]c(-c4cc(-c5ccncc5)c(=O)n(C)c4)c(C(C)C)c3c2)CC1` [Example 336, 5-(3-isopropyl-5-(1-propylpiperidin-4-yl)-1H-indol-2-yl)-1-methyl-[3,4′-bipyridin]-2(1H)-one], for which the IC50 at human TLR7 was 10.2 nM; on human TLR9 it was 553 nM; on human TLR8 it was 1.2 nM.
For `Cc1cc(-c2[nH]c3ccc(C4CCN(C(=O)C(C)(C)CO)CC4)cc3c2C(C)C)cn(C)c1=O` [Example 304, 5-(5-(1-(3-hydroxy-2,2-dimethylpropanoyl)piperidin-4-yl)-3-isopropyl-1H-indol-2-yl)-1,3-dimethylpyridin-2(1H)-one] the same measures were 7.8 nM, ≥ 50000 nM and 80 nM.
For `Cc1c(-c2[nH]c3ccc(C4CCN(C5CCOCC5)CC4)cc3c2C(C)C)cn(C)c(=O)c1C#N` [Example 222, 5-(3-isopropyl-5-(1-(tetrahydro-2H-pyran-4-yl)piperidin-4-yl)-1H-indol-2-yl)-1,4-dimethyl-2-oxo-1,2-dihydropyridine-3-carbonitrile] the same measures were 15.6 nM, 3070 nM and 0.9 nM.
For the compound `CC(C)c1cc(-c2[nH]c3ccc(C4CCNCC4)cc3c2C(C)C)cn(C)c1=O` [Example 66, 3-isopropyl-5-(3-isopropyl-5-(piperidin-4-yl)-1H-indol-2-yl)-1-methylpyridin-2(1H)-one], the figures for the IC50 against human TLR7, on human TLR9 and on human TLR8 were 12.6 nM, 764 nM and 70.5 nM, respectively.
As for `CC(C)c1c(-c2cc(Cl)c(=O)n(C)c2)[nH]c2ccc(C3CCNCC3)cc12` [Example 22, 3-chloro-5-(3-isopropyl-5-(piperidin-4-yl)-1H-indol-2-yl)-1-methylpyridin-2(1H)-one], the IC50 against human TLR7 was 1.1 nM; against human TLR9, 2550 nM; on human TLR8, 10.7 nM.
In the same order, the values of `Cc1cc(-c2[nH]c3ccc(C4CCN(Cc5ncn(C)n5)CC4)cc3c2C(C)C)cn(C)c1=O` [Example 72, 5-(3-isopropyl-5-(1-((1-methyl-1H-1,2,4-triazol-3-yl)methyl)piperidin-4-yl)-1H-indol-2-yl)-1,3-dimethylpyridin-2(1H)-one] are 21.8 nM, ≥ 50000 nM and 17.3 nM.
For `Cc1cc(-c2[nH]c3ccc(C4CCN(C5CCOCC5)CC4)cc3c2C(C)C)c(C)n(C)c1=O` [Example 210, 5-(3-isopropyl-5-(1-(tetrahydro-2H-pyran-4-yl)piperidin-4-yl)-1H-indol-2-yl)-1,3,6-trimethylpyridin-2(1H)-one] the same measures were 24.7 nM, 5030 nM and 2.7 nM.
For `CC(C)c1c(-c2cc(-c3cncnc3)c(=O)n(C)c2)[nH]c2ccc(C3CCN(CC4CCOC4)CC3)cc12` (stereo not drawn) [Example 257, 5-(3-isopropyl-5-(1-((tetrahydrofuran-3-yl)methyl)piperidin-4-yl)-1H-indol-2-yl)-1-methyl-3-(pyrimidin-5-yl)pyridin-2(1H)-one] the same measures were 15.6 nM, 1980 nM and 1.1 nM.
In the case of `CC(C)c1c(-c2ccc(=O)n(C(C)C)c2)[nH]c2ccc(C3CCNCC3)cc12` [Example 16, 1-isopropyl-5-(3-isopropyl-5-(piperidin-4-yl)-1H-indol-2-yl)pyridin-2(1H)-one], the results for the 50% inhibitory concentration (IC50) at human TLR7, against human TLR9 and on human TLR8 were 302 nM, 914 nM and 173 nM, respectively.
Turning to `Cc1cc(-c2[nH]c3ccc(C4CCN(C5CCS(=O)(=O)C5)CC4)cc3c2C(C)C)cn(C)c1=O` (stereo not drawn) [Example 81, 5-(5-(1-(1,1-dioxidotetrahydrothiophen-3-yl)piperidin-4-yl)-3-isopropyl-1H-indol-2-yl)-1,3-dimethylpyridin-2(1H)-one], the IC50 against human TLR7 is 8.8 nM; at human TLR9, ≥ 50000 nM; at human TLR8 it was 20.3 nM.
In the same order, the values of `Cc1cc(-c2[nH]c3ccc(C4CCN(CC(C)(C)O)CC4)cc3c2C(C)C)nn(C)c1=O` [Example 311, 6-(5-(1-(2-hydroxy-2-methylpropyl)piperidin-4-yl)-3-isopropyl-1H-indol-2-yl)-2,4-dimethylpyridazin-3(2H)-one] are 17.7 nM, 3150 nM and 3.9 nM.
For `Cc1cc(-c2[nH]c3ccc(C4CCN(CC(=O)N(C)C)CC4)cc3c2C(C)C)cn(CCO)c1=O` [Example 167, 2-(4-(2-(1-(2-hydroxyethyl)-5-methyl-6-oxo-1,6-dihydropyridin-3-yl)-3-isopropyl-1H-indol-5-yl)piperidin-1-yl)-N,N-dimethylacetamide] the same measures were 61.7 nM, 49300 nM and 15.6 nM.
